Laboratory results as given in patent US20060165644A1, “Cosmetics” (Fancl Corporation, priority 2002, published 2006).

Test system: Pseudomonas aeruginosa, Escherichia coli, Staphylococcus aureus
Assay: Evaluation of reduction effect for inoculated bacteria
Type: cell-based
Conditions: about 10^7 bacteria per 1 g sample; 7 days at 25° C.; plate count
Description: Pseudomonas aeruginosa, Escherichia coli, Staphylococcus aureus of about 10^7 were inoculated to the samples shown in Table 3 per 1 g of the respective samples. The viable microbe cell number were measured by plate count method after cultivation for 7 days at 25° C.
The viable microbe cell number on seventh day was calculated as a residual rate by defining the number of inoculated microbes to 100%, and the antibacterial activity of the samples was evaluated by classifying the residual rate into standards of four ranks as follow.

Row | SMILES | Antibacterial activity (residual rate of viable microbes)
1 | CC(O)CCO (centres unmarked) [Sample 9, 1,3-butylene glycol] | ◯ (Residual rate lower than 10%, not lower than 0.01%)
2 | CCCC(O)CO (centres unmarked) [Sample 10, 1,2-pentanediol] | ◯ (Residual rate lower than 10%, not lower than 0.01%)
